Measurements reported in patent US20260248826A1, “DRUG COMBINATION FOR TREATMENT OF PANCREATIC CANCER” (priority 2023, published 2026).

What was measured:
[1] = Phase 1 study of Minnelide Capsules alone or in combination with protein-bound paclitaxel in patients with Advanced Solid Tumors; type: in vivo, human
Text: Oral Minnelide. A Phase 1, Multi-Center, Open-Label, Dose-Escalation, Safety, Pharmacokinetic, and Pharmacodynamic Study of Minnelide™ Capsules given alone or in combination with protein-bound paclitaxel in patients with Advanced Solid Tumors.
A total of 51 patients have been enrolled and dosed in the Phase 1 study, of whom […] were evaluable for safety (34 in the monotherapy regimen and 16 in the combination regimen). Twenty-nine patients have completed treatment in the monotherapy regimen, and 6 dose escalations have occurred. In the monotherapy regimen, one DLT has been observed, which occurred in the 1.25 mg cohort. […] As a result of this DLT, and out of an abundance of caution, 3 additional patients were enrolled in the 1.0 mg cohort.
A total of 17 patients had been enrolled in combination therapy regimen. Two DLTs have been observed: one at the 0.25 mg minnelide and 125 mg/m^2 protein-bound paclitaxel dose level and one at the 0.25 mg minnelide and 100 mg/m^2 protein-bound paclitaxel dose level. […] A total of 2 SAEs occurred in this patient, neither of which were deemed related to the IP. As this was the first patient in the combination regimen to receive protein-bound paclitaxel with minnelide, the combination regimen was put on enrolment hold until further escalation parameters were introduced. The second DLT occurred in the first patient of the 0.25 mg minnelide and 100 mg/m^2 protein-bound paclitaxel cohort: a Grade 5 event of sepsis.

[2] = Phase 1 study of minnelide given intravenously in patients with Advanced GI Tumors; type: in vivo, human; details: IV
Text: Intravenous Minnelide. Phase 1, Multi-Center, Open-Label, Dose-Escalation, Safety, Pharmacokinetic, and Pharmacodynamic Study of minnelide given intravenously daily for 21 days followed by 7 days off schedule in patients with Advanced GI Tumors. A second dosing schedule of minnelide given intravenously QD for 5 days with 2 days off for three weeks followed by a 7-day rest period was also explored during this study. A total of 45 patients enrolled in the Phase 1 study, however 3 patients were not dosed with study drug. The remaining 42 patients were dosed in the study. The primary reason for the discontinuation of treatment was disease progression. There were 6 deaths in the study, but these occurred after the study drug had ended and were within the 30-day follow-up period. […] One patient who died from respiratory failure, and this was also found to be not related to use of the study drug.

[3] = tested on: transforming growth factor-β (TGFβ) signaling in cancer associated fibroblasts (CAFs); details: dose of 0.2 mg/kg; cited from earlier work
[4] = Blood counts of patients during minnelide dosing and withholding; type: in vivo, human
Text: A drop in blood counts is usually seen within the first 5-7 days of the start of minnelide and resolves in 4-8 days of withholding of minnelide.
CBC with differential was done on days 1, 8, 15, 22 and more frequently as clinically indicated. Patient were hospitalized for close monitoring when the ANC level was <1000 mm^3 (grade 3 or higher) or platelet was <100,000 cells/mm^3 at any time. Minnelide™ Capsules would not resume until the ANC level was ≥1500 mm^3 or platelet was ≥100,000 cells/mm^3.

[5] = tested on: pancreatic and ovarian cancer; test: Daily administration in models of pancreatic and ovarian cancer; type: in vivo; details: administered daily
[6] = tested on: pancreatic and ovarian tumor cells; test: In vitro antitumor activity (activated with alkaline phosphatase to release triptolide); type: cell-based
[7] = tested on: extracellular matrix (ECM) of the pancreatic tumors; details: by downregulating hyaluronan synthesis and preventing collagen cross linking; cited from earlier work
S2-VP10 tumor cells = test: Orthotopic S2-VP10 pancreatic tumor model in athymic nude mice; type: in vivo
Experimental: A preclinical study of minnelide was conducted in mice. Female athymic nude mice (NCI nu/nu; 4 to 6 weeks old) were anesthetized with xylazine/ketamine, and S2-VP10 tumor cells embedded in Matrigel were implanted into the pancreatic tail (3×10^5 cells/mouse). Twelve days after tumor implantation (Day 0), animals were randomized to receive saline, nab-paclitaxel plus gemcitabine (Gem/Abx; 250/25 mg/kg), or minnelide plus nab-paclitaxel plus gemcitabine (Minn/Gem/Abx; 0.15/250/25 mg/kg or 0.21/250/25 mg/kg) (10 animals/group). Minnelide was administered once daily (QD) by oral gavage (PO). Treatment continued until Day 28 when animals were sacrificed.

[8] = tested on: pancreatic tumor cells and CAFs; details: cited from earlier work
[9] = tested on: MIA-PaCa2 and PANC-1 pancreatic cancer cell lines; details: after incubation with triptolide; cited from earlier work
[10] = tested on: S2-013, S2-VP10 and Hs766T; details: metastatic lines; cited from earlier work
[11] = oral, monotherapy and combination
[12] = Day 28, minnelide 0.15 mg/kg QD PO added to Gem/Abx 250/25 mg/kg, compared with Gem/Abx alone
[13] = Day 28, minnelide 0.21 mg/kg QD PO added to Gem/Abx 250/25 mg/kg, compared with Gem/Abx alone
[14] = overall, daily oral minnelide concurrently with Gem/Abx, compared with minnelide or Gem/Abx alone

CC(C)[C@]12O[C@H]1[C@@H]1O[C@]13[C@]1(O[C@H]1C[C@H]1C4=C(CC[C@@]13C)C(=O)OC4)[C@@H]2OCOP(=O)([O-])[O-].[Na+].[Na+] [minnelide, disodium; [(1S,2S,4S,5S,7S,8R,9R,11S,13S)-1-methyl-17-oxo-7-propan-2-yl-3,6,10,16-tetraoxaheptacyclo[11.7.0.0^2,4.0^2,9.0^5.7.09^,11.0^14,18]icos-14 (18)-en-8-yl]oxymethyl phosphate]
DLTs in five additional patients ([1]; 0.25 mg minnelide and 100 mg/m^2 protein-bound paclitaxel cohort): no DLTs observed
DLTs observed ([1]; 0.25 mg minnelide and 100 mg/m^2 protein-bound paclitaxel dose level, Grade 5 sepsis): one
DLTs observed ([1]; 0.25 mg minnelide and 125 mg/m^2 protein-bound paclitaxel dose level): one
DLTs observed ([1]; combination regimen with protein-bound paclitaxel, 17 patients): Two
DLT observed ([1]; oral monotherapy regimen, in the 1.25 mg cohort, Grade 5 sepsis): one
related SAEs by type ([1]; oral, combination therapy with protein-bound paclitaxel): one event each of Grade 5 sepsis and Grade 2 esophagitis
SAEs related to the investigational product [1, 11]: 8
SAEs, total [1, 11]: 45
patients with SAEs [1, 11]: 25
related SAEs by type ([1]; oral, patients on monotherapy): 1 event each of Grade 5 sepsis, Grade 4 sepsis, Grade 3 nausea, Grade 3 polymicrobial bacteraemia, Grade 3 intractable nausea, Grade 3 hypokalaemia, and Grade 2 enteritis
AE incidence: Lower extremity oedema ([1]; regardless of causality): 24%
AE incidence: abdominal distension ([1]; regardless of causality): 12%
AE incidence: abdominal pain ([1]; regardless of causality): 30%
AE incidence: anemia ([1]; regardless of causality): 18%
AE incidence: back pain ([1]; regardless of causality): 12%
AE incidence: chills ([1]; regardless of causality): 12%
AE incidence: constipation ([1]; regardless of causality): 24%
AE incidence: dehydration ([1]; regardless of causality): 18%
AE incidence: dizziness ([1]; regardless of causality): 12%
AE incidence: dyspnoea ([1]; regardless of causality): 12%
AE incidence: fatigue ([1]; regardless of causality): 18%
AE incidence: gastroesophageal reflux disease ([1]; regardless of causality): 12%
AE incidence: leukopenia ([1]; regardless of causality): 12%
AE incidence: local swelling ([1]; regardless of causality): 18%
AE incidence: nausea ([1]; regardless of causality): 24%
AE incidence: neutropenia ([1]; regardless of causality): 30%
AE incidence: neutrophil count decreased ([1]; regardless of causality): 13%
AE incidence: pain ([1]; regardless of causality): 12%
AE incidence: pleural effusion ([1]; regardless of causality): 12%
AE incidence: pyrexia ([1]; regardless of causality): 24%
AE incidence: skin irritation ([1]; regardless of causality): 12%
AE incidence: vomiting ([1]; regardless of causality): 18%
Anemia and thrombocytopenia Grade 3 and 4, drug related, patients [2]: 22%
Serious Adverse Events related to the study drug [2]: six
Serious Adverse Events, total [2]: 28
TEAEs leading to discontinuation probably related to study drug, considered DLTs [2]: two
neutropenia grade 3 and 4 of short duration, drug related [2]: observed at all dose levels
patients with Serious Adverse Events [2]: 17
patients with at least 1 AE considered related to the study drug [2]: 32
patients with neutropenic fever and neutropenic infection, drug related [2]: three
deaths in the study ([2]; 42 patients dosed, within 30-day follow-up, not related to study drug): 6
patients who discontinued the study drug due to TEAEs ([2]; all Grade 3): 3
incidence of most commonly reported TEAEs regardless of causality ([2]; hypoalbuminemia, anemia, hypoproteinemia, fatigue, neutropenia, leukopenia, thrombocytopenia, nausea, hypocalcemia, diarrhea, hyperphosphatemia, constipation, vomiting, hyponatremia, lymphopenia, abdominal pain, dehydration, hyperglycemia, peripheral edema, hypophosphatemia, headache): > 20%
other possibly related side effects of any grade, patients ([2]; nausea, vomiting, diarrhea, constipation, anorexia, stomatitis, cerebellar toxicity, embolism, dyspnea): ≤ 3%
time to resolution of neutropenia ([2]; not receiving treatment): within a couple of days
TGFβ signaling in CAFs [3]: disrupts
time to drop in blood counts ([4]; from the start of minnelide): 5 to 7 days
time to resolution of drop in blood counts ([4]; withholding of minnelide): 4 to 8 days
animal survival [5]: markedly improved
tumor volumes [5]: significantly reduced
tumor weights [5]: significantly reduced
antitumor activity in vitro [6]: potent antitumor activity
extracellular matrix (ECM) of pancreatic tumors [7]: depleted
tumor volumes (S2-VP10 tumor cells; [12]): further reduced
tumor weights (S2-VP10 tumor cells; [12]): further reduced
tumor volumes (S2-VP10 tumor cells; [13]): further reduced
tumor weights (S2-VP10 tumor cells; [13]): further reduced
tumor volumes (S2-VP10 tumor cells; [14]): decreased
tumor weights (S2-VP10 tumor cells; [14]): decreased

CC(C)[C@]12O[C@H]1[C@@H]1O[C@]13[C@]1(O[C@H]1C[C@H]1C4=C(CC[C@@]13C)C(=O)OC4)[C@@H]2O [triptolide]
SE-associated genes (BRD4, MYC, RNA Pol II, Collagen 1) expression ([8]; both cell types, mRNA and protein levels): downregulation
cytotoxicity ([8]; both pancreatic tumor cells and CAFs): cytotoxic
caspase-3 activity [9]: significantly increased
cytochrome c release from mitochondria into the cytosol [9]: significantly increased
autophagic cell death [10]: induces autophagic cell death
